Test results as given in patent US4145554A, “3-Nitropyrazole derivatives” (Eli Lilly and Company, priority 1977, dated 1979).
In brackets after ≈: the same amount, converted by molar mass. Read-outs that look alike come from different tables or passages of the source.

Assays:
[1] = test system: Mycoplasma gallisepticum; experiment: in vitro tube dilution test (MIC); format: cell-based; settings: Mycoplasmoides gallisepticum
Excerpt: (§1) Our compound, 1-(2-hydroxyethyl)-3-nitro-4-pyrazolecarboxamide, has been extensively tested in vitro to determine the range of microorganisms against which it is active. The table of data below reports the minimum inhibitory concentration (MIC) at which the compound is effective in controlling a variety of microorganisms in a standard tube dilution test system. The MIC is reported as micrograms of compound per milliliter.
(§2) Other compounds of our invention have also been tested in the tube dilution test and shown to have in vitro activity against a number of microorganisms. The table below reports tests of a number of exemplary compounds against exemplary microorganisms. The compounds are identified by their numbers in the listing above. The data are reported as the MIC in micrograms per milliliter against the named exemplary microorganisms.

[2] = test system: Escherichia coli; experiment: in vitro tube dilution test (MIC); format: cell-based
Excerpt: as §1, §2

[3] = test system: Staphylococcus aureus sp. 1130; experiment: in vitro tube dilution test (MIC); format: cell-based
Excerpt: (§3) The other preferred compounds of our invention have also been thoroughly tested in the in vitro tube dilution test.
as §2

[4] = test system: Salmonella dublin; experiment: in vitro tube dilution test (MIC); format: cell-based; settings: Salmonella enterica
Excerpt: as §3, §2

[5] = test system: Vibrio coli 3811; experiment: in vitro tube dilution test (MIC); format: cell-based; settings: Campylobacter coli
Excerpt: as §3, §2

[6] = test system: Streptococcus sp. 80; experiment: in vitro tube dilution test (MIC); format: cell-based
Excerpt: as §2

[7] = test system: Pasteurella multocida; experiment: in vitro tube dilution test (MIC); format: cell-based
Excerpt: as §1, §3, §2

[8] = test system: Salmonella typhimurium; experiment: Salmonellosis in chickens, single injection to day-old chicks; format: in vivo; settings: for responders at 60 mg/kg: Salmonella enterica, TYPHIMURIUM, 168 h, single injection of 60 mg./kg., seven days, read-out: Survival (converted)
Procedure: A number of our 3-nitropyrazoles have been tested against an induced infection of Salmonella typhimurium in day-old chicks. The test was conducted by administering a single injection of 60 mg./kg. of the compounds to each of five chicks. The following day, the chicks were challenged by the subcutaneous injection of a dispersion of S. typhimurium organisms sufficient to kill most or all of the untreated control chicks.
Some of the compounds were tested more than once, in which instances the data are reported as the total survivors from the multiple treatment groups. Untreated, challenged control groups of chicks were tested together with each batch of groups of chicks to which test compounds were administered. Since the mortality of the untreated control chicks varied somewhat from one group of tests to another, results of the untreated control groups are reported below with each test.

[9] = Mycoplasma gallisepticum, tube dilution, read-out: MIC
[10] = Staphylococcus aureus sp. 1130, tube dilution, read-out: MIC
[11] = Salmonella dublin, tube dilution, read-out: MIC
[12] = Vibrio coli 3811, tube dilution, read-out: MIC
[13] = Streptococcus sp. 80, tube dilution, read-out: MIC

Row | MIC [1, 9] [µg/mL] | MIC ([2]; tube dilution, read-out: MIC) [µg/mL] | MIC [3, 10] [µg/mL] | MIC [4, 11] [µg/mL] | MIC [5, 12] [µg/mL] | MIC ([7]; tube dilution, read-out: MIC) [µg/mL] | MIC [6, 13] [µg/mL] | SMILES | MIC [1] [µg/mL] | MIC [2] [µg/mL] | MIC ([3]; Staphylococcus aureus, SP.1130) [µg/mL] | MIC [4] [µg/mL] | MIC [5]; 3811 [µg/mL] | MIC ([6]; Streptococcus, SP.80) [µg/mL] | MIC [7] [µg/mL] | responders at 60 mg/kg [8] [%] | chicks protected of the 5-bird treated group ([8]; salmonella challenge)
1 | – | – | – | – | – | – | – | Cn1cc(C(=O)NN=Cc2ccc([N+](=O)[O-])o2)c([N+](=O)[O-])n1 [Compound 74, 1-methyl-3-nitro-4-pyrazolecarboxylic acid, 5-nitrofurfurylidene hydrazide] | 0.78 (≈ 2.53 µM) | 6.25 (≈ 20.3 µM) | 1.56 (≈ 5.06 µM) | 12.5 (≈ 40.6 µM) | 0.39 (≈ 1.27 µM) | 50 (≈ 162 µM) | – | – | –
2 | – | – | – | – | – | – | – | NC(=O)c1cn(-c2ccc([N+](=O)[O-])cc2)nc1[N+](=O)[O-] [Compound 5, 3-nitro-1-(4-nitrophenyl)-4-pyrazolecarboxamide] | 25 (≈ 90.2 µM) | > 50 | 3.12 (≈ 11.3 µM) | > 50 | 6.25 (≈ 22.5 µM) | > 50 | 3.12 (≈ 11.3 µM) | – | –
3 | 50 (≈ 197 µM) | 50 (≈ 197 µM) | 50 (≈ 197 µM) | 50 (≈ 197 µM) | 50 (≈ 197 µM) | 25 (≈ 98.3 µM) | 50 (≈ 197 µM) | CCOC(Cn1cc(C#N)c([N+](=O)[O-])n1)OCC [Compound 67, 1-(2,2-diethoxyethyl)-3-nitro-4-pyrazolecarbonitrile] | – | – | – | – | – | – | – | – | –
4 | 50 (≈ 320 µM) | > 50 | > 50 | > 50 | > 50 | 25 (≈ 160 µM) | > 50 | NC(=O)c1c[nH]nc1[N+](=O)[O-] [Compound 60, 3(5)-nitro-4-pyrazolecarboxamide] | – | – | – | – | – | – | – | – | –
5 | – | 12.5 (≈ 68.6 µM) | 6.25 (≈ 34.3 µM) | 6.25 (≈ 34.3 µM) | – | – | 50 (≈ 275 µM) | N#Cc1cn(CCO)nc1[N+](=O)[O-] [Compound 55, 1-(2-hydroxyethyl)-3-nitro-4-pyrazolecarbonitrile] | – | – | – | – | – | – | – | 80 | –
6 | 50 (≈ 284 µM) | 50 (≈ 284 µM) | > 50 | 50 (≈ 284 µM) | 6.25 (≈ 35.5 µM) | 12.5 (≈ 71 µM) | > 50 | C#CCn1cc(C#N)c([N+](=O)[O-])n1 [Compound 4, 1-propargyl-3-nitro-4-pyrazolecarbonitrile] | – | – | – | – | – | – | – | – | –
7 | – | – | – | – | – | – | – | CCCn1cc(C(N)=O)c([N+](=O)[O-])n1 [Compound 38, 3-nitro-1-propyl-4-pyrazolecarboxamide] | – | – | – | – | – | – | – | 80 | –
8 | 12.5 (≈ 55.3 µM) | 12.5 (≈ 55.3 µM) | 6.25 (≈ 27.6 µM) | 12.5 (≈ 55.3 µM) | 12.5 (≈ 55.3 µM) | – | 50 (≈ 221 µM) | Cn1cc(-c2nnc(N)s2)c([N+](=O)[O-])n1 [Compound 102, 2-amino-5-(1-methyl-3-nitro-4-pyrazolyl)-1,3,4-thiadiazole] | – | – | – | – | – | – | – | – | at least three chicks of the 5-bird treated group
9 | > 50 | 100 (≈ 499 µM) | 100 (≈ 499 µM) | 100 (≈ 499 µM) | 12.5 (≈ 62.3 µM) | – | 100 (≈ 499 µM) | N#Cc1cn(CCCl)nc1[N+](=O)[O-] [Compound 33, 1-(2-chloroethyl)-3-nitro-4-pyrazolecarbonitrile] | – | – | – | – | – | – | – | 80 | –
10 | 50 (≈ 329 µM) | 100 (≈ 657 µM) | 100 (≈ 657 µM) | 100 (≈ 657 µM) | 100 (≈ 657 µM) | – | 100 (≈ 657 µM) | Cn1cc(C#N)c([N+](=O)[O-])n1 [Compound 30, 1-methyl-3-nitro-4-pyrazolecarbonitrile] | – | – | – | – | – | – | – | – | –
11 | > 50 | > 50 | > 50 | > 50 | 12.5 (≈ 51 µM) | 12.5 (≈ 51 µM) | 50 (≈ 204 µM) | N#Cc1cn(CCBr)nc1[N+](=O)[O-] [Compound 91, 1-(2-bromoethyl)-3-nitro-4-pyrazolecarbonitrile] | – | – | – | – | – | – | – | – | –
12 | – | – | – | – | – | – | – | Cc1ccc(C(=O)OCCn2cc(C(N)=O)c([N+](=O)[O-])n2)cc1 [Compound 76, [2-(4-carbamoyl-3-nitropyrazol-1-yl)ethyl] p-toluate] | – | – | – | – | – | – | – | 100 | –
13 | 50 (≈ 262 µM) | 50 (≈ 262 µM) | 50 (≈ 262 µM) | 50 (≈ 262 µM) | 25 (≈ 131 µM) | 12.5 (≈ 65.4 µM) | 50 (≈ 262 µM) | N#CCCn1cc(C#N)c([N+](=O)[O-])n1 [Compound 73, 4-cyano-3-nitro-1-pyrazolepropionitrile] | – | – | – | – | – | – | – | – | –
14 | – | – | – | – | – | – | – | NC(=O)c1cn(-c2ncc([N+](=O)[O-])s2)nc1[N+](=O)[O-] [Compound 95, 3-nitro-1-(5-nitro-2-thiazolyl)pyrazole-4-carboxamide] | 12.5 (≈ 44 µM) | > 50 | < 1.56 | 25 (≈ 88 µM) | < 1.56 | 50 (≈ 176 µM) | 3.12 (≈ 11 µM) | – | –
